The record followed here is EP4786484A1, “CYCLIC PEPTIDE COMPOUND AND USE THEREOF” (Shenzhen Zhongge Biological Technology Co., Ltd., priority 2023, dated 2026).

Structures are written as SMILES. Residues, ends and D or L forms follow the SMILES beside them.

Holding throughout (assay type): cell-based, human
Test [1] deals with Collagen I (type I collagen). Put plainly: Collagen I elevation effect in fibroblasts (ELISA). Further details: Collagen I elevation effect in the fibroblasts: unit not given here. The conditions noted are these: 1 µM, 24 h; for Collagen I elevation effect in the fibroblasts: ELISA, Blank control (BC) 35.6; for type I collagen (Collagen I) content compared to the BC: result in words. The text has this: (§1) B. Collagen I (type I collagen) elevation effect in fibroblasts, hyaluronic acid (HA) elevation effect in fibroblasts, and elastin (ELN) elevation effect in fibroblasts
(§2) Test materials: Fibroblasts of human origin (Guangdong Boxi Biotechnology Co., Ltd., Lot No. Fb20081902), DMEM culture medium (Gibco, 23042301, expiration date 230522), PBS (Solarbio, P1010), TGF-β1 (Peprotech, 230504), Collagen I ELISA Kit (Cusabio, B21025824), Elastin ELISA kit (Abcam, GR3446070-2), HA ELISA kit (RD, P325066). CO2 incubator (Thermo, 1501), super-clean bench (AIRTECH, SW-CJ-1F), microplate reader (BioTek, Epoch).
(§3) Test methods: • 1) Inoculation: After cell resuscitation, the cells were inoculated into 6-well plates when the plating rate reached around 60%, and were incubated overnight in an incubator (37°C, 5% CO2). • 2) Formulation of solutions: The cyclic peptide compounds in the sample group, PC2 (Biotinoyl-GHK, [drawing 2] ) and PC3 [drawing 3] in the positive reference group were all at the concentration of 1 µM, and the test substance working solutions were formulated. Only the cell culture medium was added for the blank control group (BC). • 3) Administration: When the cell plating rate in the 6-well plates reached 40% to 60%, administration was performed at 2 mL per well. 3 duplicate wells were set for each group. Incubation was performed in an incubator (37°C, 5% CO2) for 24 h. • 4) ELISA assay: The ELISA assay was performed according to the instructions of the ELISA kit, with the detection indicators being Collagen I elevation effect in the fibroblasts, HA elevation effect in the fibroblasts, and elastin elevation effect in the fibroblasts.
In general terms: ELISA stands for enzyme-linked immunosorbent assay.

Test [2] relates to elastin (ELN). The experiment in a line: Elastin (ELN) elevation effect in fibroblasts (ELISA). The conditions noted are these: 1 µM, 24 h; for Elastin elevation effect in the fibroblasts: ELISA, Blank control (BC) 756.52; for elastin content compared to the BC: result in words. Further details: Elastin elevation effect in the fibroblasts: unit not given here.
Source text: as §1, §2, §3

Test [3] deals with hyaluronic acid (HA). The experiment in a line: Hyaluronic acid (HA) elevation effect in fibroblasts (ELISA). The note with it: 1 µM, 24 h; for HA elevation effect in the fibroblasts: ELISA, Blank control (BC) 1402.44; for hyaluronic acid (HA) content compared to the BC: result in words. Further details: HA elevation effect in the fibroblasts: unit not given here.
Source text: as §1, §2, §3

As for `CSCC[C@@H]1NC(=O)[C@@H]2CCCN2C(=O)[C@H](C(C)C)NC(=O)[C@H](CCCCN)NC(=O)[C@H](Cc2c[nH]cn2)NC(=O)CNC1=O` [compound 707] (cyclo(GHKVPM)), in test [1], the “Collagen I elevation effect in the fibroblasts” value (“Collagen I elevation effect” for short) is recorded as 66.21 and the “type I collagen (Collagen I) content compared to the BC” value (from here on “type I collagen … compared to the BC”) is given as “significant increase”.
As to `CSCC[C@@H]1NC(=O)[C@H](CCCCN)NC(=O)[C@H](Cc2c[nH]cn2)NC(=O)CNC(=O)[C@@H]2CCCN2C(=O)CNC1=O` [compound 340] (cyclo(GHKMGP)), in test [2], the “Elastin elevation effect in the fibroblasts” value (shortened to “Elastin elevation effect”) worked out at 1304.87 and the “elastin content compared to the BC” value is given as “significant increase”. In addition, in test [1], the “Collagen I elevation effect” value came to 90.07 and the “type I collagen … compared to the BC” value is given as “significant increase”.
Consider `CC(C)C[C@@H]1NC(=O)[C@H](CCCCN)NC(=O)[C@H](Cc2c[nH]cn2)NC(=O)CNC(=O)[C@H](C(C)C)NC(=O)[C@H](Cc2ccccc2)NC1=O` [compound 297] (cyclo(FVGHKL)), for which, in test [3], the “HA elevation effect in the fibroblasts” value amounted to 2212.6 and the “hyaluronic acid (HA) content compared to the BC” value is recorded as “significant increase”. In addition, in test [2], the “Elastin elevation effect” value stood at 923.52 and the “elastin content compared to the BC” value is listed as “significant increase”. In addition, in test [1], the “Collagen I elevation effect” value worked out at 52.28 and the “type I collagen … compared to the BC” value was “significant increase”.
In the case of `CC(C)C[C@@H]1NC(=O)[C@H](CCCCN)NC(=O)[C@H](Cc2c[nH]cn2)NC(=O)CNC(=O)[C@H](C)NC(=O)[C@H](Cc2ccccc2)NC1=O` [compound 289] (cyclo(AGHKLF)), in test [3], the “HA elevation effect in the fibroblasts” value is 1978.48 and the “hyaluronic acid (HA) content compared to the BC” value is listed as “significant increase”. In addition, in test [2], the “Elastin elevation effect” value is 1034.59 and the “elastin content compared to the BC” value is “significant increase”. In test [1], the “Collagen I elevation effect” value was determined as 41 and the “type I collagen … compared to the BC” value was “significant increase”.
Turning to `CC[C@H](C)[C@@H]1NC(=O)[C@H](Cc2ccccc2)NC(=O)[C@H](CC(C)C)NC(=O)[C@H](CCCCN)NC(=O)[C@H](Cc2c[nH]cn2)NC(=O)CNC1=O` [compound 291] (cyclo(FIGHKL)), in test [3], the “HA elevation effect in the fibroblasts” value is recorded as 2477.91 and the “hyaluronic acid (HA) content compared to the BC” value is “significant increase”. Further, in test [2], the “Elastin elevation effect” value is recorded as 1177.19 and the “elastin content compared to the BC” value was “significant increase”.
Consider `C[C@@H]1NC(=O)[C@H](CCCCN)NC(=O)[C@H](Cc2c[nH]cn2)NC(=O)CNC(=O)[C@@H]2CCCN2C(=O)[C@H](Cc2ccccc2)NC1=O` [compound 52] (cyclo(AFPGHK)), for which, in test [3], the “HA elevation effect in the fibroblasts” value came out at 2900.83 and the “hyaluronic acid (HA) content compared to the BC” value is given as “significant increase”. For the same compound, in test [2], the “Elastin elevation effect” value was 1043.27 and the “elastin content compared to the BC” value was “significant increase”.
Take `CC[C@H](C)[C@@H]1NC(=O)[C@H](CCCCN)NC(=O)[C@H](Cc2c[nH]cn2)NC(=O)CNC(=O)[C@@H]2CCCN2C(=O)[C@H](Cc2c[nH]c3ccccc23)NC1=O` [compound 232] (cyclo(GHKIWP)): in test [2], the “Elastin elevation effect” value is on record as 1001.84 and the “elastin content compared to the BC” value is on record as “significant increase”. Further, in test [1], the “Collagen I elevation effect” value was 67.93 and the “type I collagen … compared to the BC” value is “significant increase”.
As to `CC(C)C[C@@H]1NC(=O)[C@H](CCCCN)NC(=O)[C@H](Cc2c[nH]cn2)NC(=O)CNC(=O)[C@@H]2CCCN2C(=O)[C@H](C)NC1=O` [compound 250] (cyclo(APGHKL)), in test [3], the “HA elevation effect in the fibroblasts” value is reported as 2142.56 and the “hyaluronic acid (HA) content compared to the BC” value is “significant increase”. Besides, in test [2], the “Elastin elevation effect” value stood at 1051.64 and the “elastin content compared to the BC” value was “significant increase”. For the same compound, in test [1], the “Collagen I elevation effect” value worked out at 55.85 and the “type I collagen … compared to the BC” value is given as “significant increase”.
Consider `CC[C@H](C)[C@@H]1NC(=O)[C@H](CCCCN)NC(=O)[C@H](Cc2c[nH]cn2)NC(=O)CNC(=O)[C@@H]2CCCN2C(=O)[C@H](Cc2ccccc2)NC1=O` [compound 214] (cyclo(FPGHKI)), for which, in test [3], the “HA elevation effect in the fibroblasts” value is 1965.3 and the “hyaluronic acid (HA) content compared to the BC” value is listed as “significant increase”. In test [2], the “Elastin elevation effect” value was 1050.82 and the “elastin content compared to the BC” value is “significant increase”. In test [1], the “Collagen I elevation effect” value is on record as 42.51 and the “type I collagen … compared to the BC” value is given as “significant increase”.
For `CC(C)[C@@H]1NC(=O)[C@H](C)NC(=O)[C@H](Cc2ccccc2)NC(=O)[C@H](CCCCN)NC(=O)[C@H](Cc2c[nH]cn2)NC(=O)CNC1=O` [compound 414] (cyclo(AVGHKF)), in test [3], the “HA elevation effect in the fibroblasts” value is 1926.61 and the “hyaluronic acid (HA) content compared to the BC” value is “significant increase”. In test [2], the “Elastin elevation effect” value is given as 1124.58 and the “elastin content compared to the BC” value is “significant increase”. Also, in test [1], the “Collagen I elevation effect” value worked out at 40.54 and the “type I collagen … compared to the BC” value was “significant increase”.
Regarding `CC[C@H](C)[C@@H]1NC(=O)[C@H](CCCCN)NC(=O)[C@H](Cc2c[nH]cn2)NC(=O)CNC(=O)[C@@H]2CCCN2C(=O)[C@H](CCSC)NC1=O` [compound 205] (cyclo(GHKIMP)), in test [3], the “HA elevation effect in the fibroblasts” value worked out at 2641.21 and the “hyaluronic acid (HA) content compared to the BC” value is “significant increase”. For the same compound, in test [2], the “Elastin elevation effect” value is given as 1074.17 and the “elastin content compared to the BC” value was “significant increase”. Further, in test [1], the “Collagen I elevation effect” value came to 49.25 and the “type I collagen … compared to the BC” value was “significant increase”.
Take `CC(C)[C@@H]1NC(=O)[C@H](CCCCN)NC(=O)[C@H](Cc2c[nH]cn2)NC(=O)CNC(=O)[C@H](Cc2c[nH]c3ccccc23)NC(=O)[C@@H]2CCCN2C1=O` [compound 710] (cyclo(GHKVPW)): in test [2], the “Elastin elevation effect” value is reported as 1207.29 and the “elastin content compared to the BC” value was “significant increase”. Also, in test [1], the “Collagen I elevation effect” value was 110.87 and the “type I collagen … compared to the BC” value is given as “significant increase”.
`CC[C@H](C)[C@@H]1NC(=O)[C@H](CC(C)C)NC(=O)[C@H](CCCCN)NC(=O)[C@H](Cc2c[nH]cn2)NC(=O)CNC(=O)[C@@H]2CCCN2C1=O` [compound 268] (cyclo(GHKLIP)): in test [1], the “Collagen I elevation effect” value came to 61.46 and the “type I collagen … compared to the BC” value is “significant increase”.
For the compound `CC[C@H](C)[C@@H]1NC(=O)[C@H](CCCCN)NC(=O)[C@H](Cc2c[nH]cn2)NC(=O)CNC(=O)[C@@H]2CCCN2C(=O)[C@H](CC(C)C)NC1=O` [compound 196] (cyclo(GHKILP)), in test [3], the “HA elevation effect in the fibroblasts” value came to 2305.13 and the “hyaluronic acid (HA) content compared to the BC” value was “significant increase”. In test [2], the “Elastin elevation effect” value amounted to 1175.6 and the “elastin content compared to the BC” value is recorded as “significant increase”.
